Laboratory results reported in paper PMC9011347, “Small-Molecule Inhibitors Targeting Lipolysis in Human Adipocytes” (Journal of the American Chemical Society, 2022).

How the values were obtained:
[1] = target: T1, PNPLA1 (Homo sapiens, UniProt Q8N8W4); test: PNPLA1-dependent ω-O-acylceramide formation in HEK293T cells; type: cell-based; conditions: NG-497 40 µM, Orlistat 40 µM
T1 construct: expressed in transfected cells; host or cells: HEK293T cells
Experimental: Fig. S3: Investigation of off-target effects of NG-497 on structurally and functionally related lipid hydrolases. (a) PNPLA1-dependent formation of acylceramides was monitored in a cell-based assay in HEK293T cells. Experiments were performed in the presence or absence of NG-497 (40 µM) and the non-selective lipase inhibitor Orlistat (40 µM). Orlistat, but not NG-497, inhibited PNPLA1/CGI-58-dependent ω-O-acylceramide formation. (b-h) Enzymes were overexpressed in Expi293 cells and cell lysates were used as source of enzymatic activity. […] Experiments were performed in the presence or absence of NG-497 (100 µM) and the formation of reaction products was monitored. […]
Data were calculated relative to the basal activity detected in LacZ-transfected controls. […]
LPL activity was inhibited using an anti-LPL antibody. All data are presented as mean ± S.D. Statistical significance was determined via ANOVA followed by Bonferroni post hoc test ( ***, p < 0.001). […]
Released free fatty acids were quantified via NEFA C kit (Fujifilm Wako Chemicals, Neuss, Germany) and release of p-nitrophenol was measured at 405 nm. […] Cellular ω-O-acylceramide formation was monitored using [1-14C]linoleic acid as tracer. […] The activity of purified human pancreatic lipase (MilliporeSigma #SRE0028) was determined as previously described7 in the presence or absence of NG-497 (100µM) or Orlistat (20 µM). […]

[2] = target: T2, human ATGL (Homo sapiens, UniProt Q96AD5); test: TAG hydrolase assay, lysates of Expi293 cells overexpressing ATGL, purified CGI-58, radiolabeled triolein; type: biochemical; conditions: inhibition of TAG hydrolase activity of human ATGL, Expi293 lysates, purified CGI-58, radiolabeled triolein
T2 construct: host or cells: Expi293 cells, crude lysate
T2 sequence (Q96AD5 1-504): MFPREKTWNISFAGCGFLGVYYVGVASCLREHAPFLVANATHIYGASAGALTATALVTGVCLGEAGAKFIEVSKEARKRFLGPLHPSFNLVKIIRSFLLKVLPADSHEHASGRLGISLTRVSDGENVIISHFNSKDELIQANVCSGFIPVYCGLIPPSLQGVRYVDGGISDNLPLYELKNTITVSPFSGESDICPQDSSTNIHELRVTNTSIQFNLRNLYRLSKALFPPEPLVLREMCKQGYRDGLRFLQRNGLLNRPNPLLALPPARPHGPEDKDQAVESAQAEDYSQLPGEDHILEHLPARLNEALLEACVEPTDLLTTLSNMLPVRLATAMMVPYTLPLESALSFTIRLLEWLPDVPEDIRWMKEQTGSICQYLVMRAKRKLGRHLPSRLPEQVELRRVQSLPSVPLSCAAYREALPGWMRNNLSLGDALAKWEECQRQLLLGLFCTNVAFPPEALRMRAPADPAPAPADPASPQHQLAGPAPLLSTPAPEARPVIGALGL
From the text: We previously developed Atglistatin (Ai), a selective inhibitor of mouse ATGL,[31],[32] which is ineffective against human ATGL.[17] Ai acts as a competitive inhibitor targeting the minimal active domain of ATGL ranging from aa 1–254.[33] This domain is highly conserved in different mammalian species (∼90% identity, Table 1) and comprises the patatin-like domain, eponymous for all members of the patatin-like phospholipase domain-containing (PNPLA) protein family.[34] We first investigated the species selectivity of Ai by performing TAG hydrolase assays[35] with lysates from Expi293 cells expressing ATGL orthologues of different species. The activity of ATGL is strongly stimulated by the co-activator protein comparative gene identification-58 (CGI-58, also known as α/β hydrolase domain containing 5, ABHD5)[36] and can be suppressed by the inhibitory protein G0/G1 switch 2 (G0S2).[37] We therefore determined ATGL activity in the presence and absence of mouse CGI-58, mouse G0S2, and Ai. As shown in Figure 1a–i, all ATGL orthologues were expressed, enzymatically active, stimulated by mouse CGI-58, and inactivated by mouse G0S2. Ai inhibited mouse (Figure 1a), rat (Figure 1b), goat (Figure 1c), dog (Figure 1e), and marmoset ATGL (Figure 1f), but not pig (Figure 1d), rhesus monkey (Figure 1g), or human ATGL (Figure 1h).
To develop an inhibitor for human ATGL, we screened compounds synthesized in the course of the development of Ai.[31] Screenings were performed in the presence of purified CGI-58 using cell lysates of Expi293 cells overexpressing ATGL as a source of enzymatic activity and radiolabeled triolein as substrate as described above (Figure 1). […] In an iterative optimization process, which encompassed the synthesis and testing of >150 compounds (not shown), we varied the nature of the top aryl ring (Figure 2a). Replacement of the top phenyl group with a pyridine moiety (compound 2) led to a significant improvement in inhibitor efficacy (IC50 = 3 μM), which we interpret as a result from a smaller angle between the 1,3-arrangement of the aryl- and the ester-substituents due to the shorter C–N bond length within the pyridine group. […] The introduction of a methoxy residue at this position finally led to compound NG-497 showing an IC50 value of 1 μM.
Experimental details, materials, and methods
Expression of recombinant ATGL constructs and preparation of cell lysates. Expi293 cells were cultivated in Expi293 Expression Medium (GIBCO, Thermo Fisher Scientific, Waltham, USA) at standard conditions (37°C, 5% CO2, 95% humidified atmosphere, 125 rpm). DNA constructs containing ATGL from different species and chimeric ATGL variants in pcDNA3.1(+)myc-His C Vector were obtained from BioCat GmbH (Heidelberg, Germany). Cells were transfected with ExpiFectamine293 Transfection Kit (GIBCO) in Opti-Mem reduced serum medium (GIBCO) according to the manufacturer’s instructions. After 48 h, cells were harvested by centrifugation and washed three times with PBS. Cells were disrupted in buffer A (0.25 M sucrose, 1 mM EDTA, 1 mM dithiothreitol, 20µg/ml leupeptin, 2 µg/ml antipain, 1 µg/ml pepstatin, pH 7.0) by sonication (Virsonic 475, Virtis, Gardiner, USA). Nuclei and debris were removed by centrifugation at 1,000 g and 4°C for 10 min. Protein concentrations were determined using Bio-Rad protein assay (Bio-Rad 785, Bio-Rad Laboratories, Munich, Germany) using BSA as standard.
Expression and purification of mouse CGI-58. CGI-58 was expressed and purified as described 1. In brief, the coding sequence of mouse Cgi-58 was cloned into pHis-Sumo and co-transformed with the plasmid pTf16 expressing the chaperone Tig into E. coli BL21(DE3). Cells were cultured overnight at 37°C and 180 rpm in the presence of 40 µg/ml kanamycin and 34 µg/ml chloramphenicol. Thereafter, cells were transferred into fresh LB medium, grown until OD600 of 0.6, and expression was induced […]
by the addition of 0.5 mM IPTG. […]

T1 sequence (Q8N8W4 whole entry): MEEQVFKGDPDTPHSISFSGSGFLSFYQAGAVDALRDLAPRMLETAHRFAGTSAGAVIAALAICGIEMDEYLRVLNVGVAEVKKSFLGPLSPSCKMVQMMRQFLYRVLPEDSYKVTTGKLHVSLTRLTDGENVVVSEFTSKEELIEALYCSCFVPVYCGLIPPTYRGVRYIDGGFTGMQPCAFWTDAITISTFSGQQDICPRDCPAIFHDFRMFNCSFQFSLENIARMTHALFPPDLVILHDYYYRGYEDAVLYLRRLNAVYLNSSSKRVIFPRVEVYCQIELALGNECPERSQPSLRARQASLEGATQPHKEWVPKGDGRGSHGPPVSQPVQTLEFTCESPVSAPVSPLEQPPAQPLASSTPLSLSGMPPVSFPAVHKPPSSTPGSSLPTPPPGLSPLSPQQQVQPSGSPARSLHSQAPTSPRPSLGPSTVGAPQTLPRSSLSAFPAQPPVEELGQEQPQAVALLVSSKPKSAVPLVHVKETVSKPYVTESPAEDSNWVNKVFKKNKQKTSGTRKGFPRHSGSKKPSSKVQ

| Compound | PNPLA1/CGI-58-dependent ω-O-acylceramide formation [1] | IC50 [2] |
| --- | --- | --- |
| CCCCCCCCCCC[C@@H](C[C@@H]1OC(=O)[C@H]1CCCCCC)OC(=O)[C@H](CC(C)C)NC=O [Orlistat, reference compound] | inhibited | – |
| CCOC(=O)c1cccc(-c2ccc(OCC)cc2)c1 [compound 1] | – | 35 µM |
| CCOC(=O)c1cccc(-c2ccc(OCC)cc2)n1 [compound 2] | – | 3 µM |
| CCOc1ccc(-c2cccc(C(=O)OC(C)C)n2)cc1 [compound 3] | – | 1.8 µM |
| CCOc1ccc(-c2cc(C)cc(C(=O)OC(C)C)n2)cc1 [compound 4] | – | 1.6 ± 0.1 µM |
